Assay results reported in patent publication US7842324B2 (Senomyx, Inc., priority 2005, dated 2010).

System: Human Panelists
Assay: Line Scale sensory testing human taste test (Table C)
Type: in vivo
Conditions: 5 μM compound + 6% fructose/glucose, low sodium buffer pH 7.1
Source text: Purpose: To create a dose-response curve for perceived sweetness intensity of fructose-glucose concentrations. Test samples containing experimental compound are compared to this dose-response curve to determine equivalent sweetness intensity. This type of study requires a number of evaluations in order to obtain statistically significant data, so the test may be repeated with the same or additional panelists.
Overview: A group of eight or more panelists taste solutions including fructose-glucose at various concentrations, as well as the experimental compound, both with and without added fructose-glucose. Panelists rate sweetness intensity of all samples on an unstructured horizontal line scale, anchored from 0 to 10, where 0 equals no sweetness and 10 equals intense sweetness. Scores for sweetness intensity are averaged across panelists. Then using the average scores and/or equation of the line for the fructose-glucose dose-response curve, equivalent sweetness fructose-glucose concentrations are determined for the samples containing experimental compound.
Procedure: Eight or more subjects are used for the Line Scale tests. Subjects have been previously familiarized with the key attribute taste and are trained to use the 0 to 10 unstructured line scale. Subjects refrain from eating or drinking (except water) for at least 1 hour prior to the test. Subjects eat a cracker and rinse with water several times to clean the mouth.
Fructose-glucose solutions are provided at a wide range of concentrations, such as 0%, 2%, 4%, 6%, 8%, and 10% fructose-glucose, in order to create the dose-response curve. Samples containing experimental compound are prepared both alone and in a 6% fructose-glucose solution. All samples are made up in low sodium buffer pH 7.1. In order to aid dispersion, solutions can also be made up in 0.1% ethanol.
The solutions are dispensed in 20 ml volumes into 1 oz. sample cups and served to the subjects at room temperature. All samples are presented in randomized counterbalanced order to reduce response bias. Further, two sessions of testing may be used to check panel precision.
Subjects taste each sample individually and rate sweetness intensity on the line scale prior to tasting the next sample. All samples are expectorated. Subjects may retaste the samples but can only use the volume of sample given. Subjects must rinse with water between samples. Eating an unsalted cracker between sample pairs may be required depending on the samples tasted.
The scores for each sample are averaged across subjects and standard error is calculated. The dose-response curve is plotted graphically, and this may be used to ensure the panel is rating accurately; i.e. increasing the concentration of fructose-glucose should correspond to increased average scores for sweetness. A 2-way ANOVA (factors being samples and panelists) and multiple comparison tests (such as Tukey's Honestly Significant Difference test) can be used to determine differences among samples and/or panelists. A 3-way ANOVA, with sessions as the third factor, can be used to determine if there is any difference in the ratings between sessions.

## CC(C)CNC(=O)C(C)(C)c1ccc(-c2cncc(C#N)c2)cc1 [Compound 23, 2-(4-(5-cyanopyridin-3-yl)phenyl)-N-isobutyl-2-methylpropanamide]
  Perceived Equivalent Sweet Solution: Equal to 10% fructose/ % fructose/glucose
